The record followed here is PubChem BioAssay AID1419 (Emory University Molecular Libraries Screening Center, 2008).

The nature of the test: EBV protein-peptide binding inhibitors, dose response, biochemical, fluorescence polarization (AID 1419). As to conditions: cell-free protein-peptide binding, 2 h; for fold change: measured here: P channel fold over control, at 54 µM.

Active and inactive are the calls of the source. The rule behind the calls is not given here. Where only a bound is given, the exact number is not on record here.

Usually IC50 stands for the point on the concentration scale where inhibition reaches its midpoint. In the case of `c1ccc(-c2cn3nc(-c4ccccc4)c(-c4ccccc4)nc3n2)cc1`, the IC50 was 0.78 µM and the fold change is 21.2.
Consider `CCOC(=O)Cn1c2ccc(OC)cc2c2nc3ccccc3nc21`, for which the 50% inhibitory concentration (IC50) was 0.79 µM and the fold change worked out at 6.57.
For `O=S(=O)(Nc1nc2ccccc2nc1-[n+]1cccc(N=C([O-])c2ccccc2Cl)c1)c1ccccc1`, in that order: 1.13 µM and 2.79.
The like results for `OCCCc1nc2n(n1)C(c1cccs1)C=C(c1ccccc1)N2` (stereo not given) were, in that order, < 0.42 µM and 43.2.
For the molecule `Cc1noc(/C=C/c2ccc(-c3ccccc3Cl)o2)c1[N+](=O)[O-]`, the IC50 was 13.2 µM and the fold change was 7.6.
Consider `CCC1(CC)NC(=O)N(CC(=O)Nc2sc3c(c2C(N)=O)CCC3)C1=O`, for which the IC50 is > 54 µM (inactive) and the fold change came to 1.23.
Take `O=c1oc2ccccc2nc1/C=C(\O)c1ccc(Br)cc1`: the IC50 was > 54 µM (inactive) and the fold change stood at 6.17.
In the case of `CSc1nc(N(C)CCO)c2sc3nc(-c4ccco4)c4c(c3c2n1)CCC4`, the IC50 is > 54 µM (inactive) and the fold change turned out to be 1.04.
As to `CCCCCn1c(N)c(-c2nc3ccccc3o2)c2c([N+](=O)[O-])nn(CC)c(=O)c21`, the IC50 was > 54 µM (inactive) and the fold change turned out to be 0.747.
Consider `COc1ccc(C(=O)NC2(C(F)(F)F)C(=O)N(Cc3ccco3)C3=C2C(=O)CC(C)(C)C3)cc1OC` (stereo not given), for which the IC50 was > 54 µM (inactive) and the fold change stood at 1.14.
In the case of `Nc1ccc2c3c(cccc13)C(=O)N(c1ccccc1)C2=O`, the IC50 was < 0.42 µM and the fold change was found to be 200.
Take `Cc1ccc(N2C(=O)[C@@H]3[C@H](C2=O)C2c4ccccc4C=CN2[C@@H]3C(=O)c2ccco2)cc1` (stereo not given in full): the concentration for half-maximal inhibition (IC50) was 5.71 µM and the fold change was 2.76.
For `CCN(CC)S(=O)(=O)c1ccc(C(=O)OCCN2C(=O)c3cccc4c(N5CCOCC5)ccc(c34)C2=O)cc1`, the IC50 was 1.53 µM and the fold change is 111.
On to `O=C(O)COc1ccc(-c2nccc(-c3cccs3)n2)cc1`, for which the IC50 is > 54 µM (inactive) and the fold change came out at 1.03.
For the molecule `CC(C)Oc1ccc(-c2nn(-c3ccccc3)cc2/C=c2\sc3ncnn3c2=O)cc1`, the IC50 is 1.43 µM and the fold change was 14.3.
For `O=C1c2cccc3c([N+](=O)[O-])ccc(c23)C(=O)N1CC1CCCO1` (stereo not given), in that order: 13.8 µM and 2.37.
As for `CC(=O)Oc1ccc(C(=O)Nc2cccc(C(=O)c3cccc(NC(=O)c4ccc(OC(C)=O)cc4)c3)c2)cc1`, the IC50 is > 54 µM (inactive) and the fold change came to 0.997.
With `Cn1cc(/C=C2\SC(=S)N(NC(=O)c3cccc(Cl)c3)C2=O)c2ccccc21`, the IC50 is 4.3 µM and the fold change worked out at 8.23.
Regarding `S=C(Nc1ccc(N2CCOCC2)cc1)Nc1ccc2nc(-c3ccco3)c(-c3ccco3)nc2c1`, the 50% inhibitory concentration (IC50) was 3.86 µM and the fold change was 3.7.
For `Cc1ccc([N+](=O)[O-])cc1N=Nc1c(-c2ccc([N+](=O)[O-])cc2)[nH]n(C(N)=S)c1=O`, the half-maximal inhibitory concentration (IC50) is 1.83 µM and the fold change turned out to be 1.04.
As to `COC(=O)c1cc2n3ccccc3c(C)c(-c3ccccc3)c-2c1C(=O)OC`, the half-maximal inhibitory concentration (IC50) is 2.69 µM and the fold change was determined as 4.46.
As to `COc1cccc(C2C3CN(C)CC=C3C(C#N)=C(N)C2(C#N)C#N)c1OC` (stereo not given), the IC50 was 0.83 µM and the fold change turned out to be 9.89.
For `O=[N+]([O-])c1ccc(Sc2cccc3cccnc23)c2cccnc12`, in that order: 29.5 µM and 2.58.
The like results for `c1ccc(-c2cn3nc4c(nc3n2)CCCC4)cc1` were, in that order, 4.56 µM and 2.57.
`Cc1ccc2cc(C=C(C#N)C#N)c(N3CCCCC3)nc2c1`: the IC50 was 2.98 µM and the fold change worked out at 24.
Take `COc1cc2c(cc1NC(=O)CN1C(=O)NC3(CCc4ccccc43)C1=O)oc1ccccc12` (stereo not given): the IC50 was > 54 µM (inactive) and the fold change amounted to 0.93.
The like results for `O=C(O)COc1ccc(/C=N/NC(=O)c2ccc(-c3csc(Nc4ccc(Cl)cc4)n3)cc2)cc1` were, in that order, 14.7 µM and 1.13.
For `O=C(OCCN1C(=O)c2cccc3c(N4CCOCC4)ccc(c23)C1=O)c1ccc(Cl)cc1Cl`, the concentration for half-maximal inhibition (IC50) is 1.81 µM and the fold change amounted to 84.3.
On to `CSc1nc(N(CCO)CCO)c2sc3nc(-c4ccco4)c4c(c3c2n1)CCC4`, for which the IC50 is > 54 µM (inactive) and the fold change worked out at 1.07.
For `C#CCOC(=O)/C(=C/C=C/c1ccccc1)NC(=O)c1ccccc1`, the IC50 was > 54 µM (inactive) and the fold change turned out to be 1.01.
Turning to `O=S(=O)(Nc1ccc2c(c1)OCCO2)c1cccc2cccnc12`, the IC50 was > 54 µM (inactive) and the fold change worked out at 0.963.
Turning to `CCN(CC)C(=O)CSc1nnc2nnc3cc(OC)ccc3n12`, the IC50 was < 0.42 µM and the fold change turned out to be 7.06.
In the case of `COc1ccc(NC(=O)N(CCc2ccccc2)Cc2cc3c(C)cc(C)cc3[nH]c2=O)cc1`, the IC50 is > 54 µM (inactive) and the fold change amounted to 0.987.
`C=CCN1CC(c2nc3ccccc3n2CCOc2ccccc2)CC1=O` (stereo not given): the IC50 was 34.2 µM (inactive) and the fold change is 1.08.
The like results for `CCn1c(CSc2nnc3ccccn23)nc2cc(C(=O)O)ccc21` were, in that order, 4.04 µM and 1.93.
Regarding `COc1ccc(-c2c(C#N)c(N)nc3sc(C(=O)c4ccccc4)c(N)c23)cc1`, the concentration for half-maximal inhibition (IC50) is 6.7 µM and the fold change was found to be 7.69.
Take `CC1=CC(=C(C#N)c2nc3ccccc3s2)C=C(C)N1c1ccc(F)cc1F`: the IC50 was 3.98 µM and the fold change stood at 11.2.
`CN1/C(=C/C=C(C#N)C#N)C(C)(C)c2ccccc21`: the IC50 was > 54 µM (inactive) and the fold change was determined as 1.64.
With `CC(C)NC(=O)c1sc2nc(-c3cccs3)cc(-c3cccs3)c2c1N`, the half-maximal inhibitory concentration (IC50) was 2.1 µM and the fold change was determined as 15.4.
The like results for `O=C(NNC1=Nc2cccc3cccc1c23)c1ccc(Br)cc1` were, in that order, > 54 µM (inactive) and 3.27.
For `Cc1ccc(C(=O)NN2C(=O)/C(=C/c3cn(C)c4ccccc34)SC2=S)cc1`, in that order: 3.42 µM and 6.95.
For `O=C(ONc1ccc(N=NC(=O)c2ccccc2O)cc1)c1ccccc1`, the IC50 is > 54 µM (inactive) and the fold change amounted to 1.09.
The like results for `O=C(Nc1ccc(-n2cnnn2)cc1)C1CCC1` were, in that order, > 54 µM (inactive) and 0.983.
`Cc1cc(/C=C(/C#N)c2nc3ccccc3[nH]2)c(C)n1-c1cc(C(=O)O)cc(C(=O)O)c1`: the IC50 was 2.92 µM and the fold change was determined as 23.1.
As for `COc1cc(/C=C2\SC(=O)N(Cc3ccc(F)cc3)C2=O)cc([N+](=O)[O-])c1O`, the IC50 was > 54 µM (inactive) and the fold change is 0.843.
Turning to `Cc1cccc(-n2c(SCc3cc(=O)n4ccsc4n3)nc3ccccc32)c1`, the IC50 was 2.79 µM and the fold change came to 1.78.
Turning to `N#CC1=C(N)C(C#N)(C#N)C(c2cccnc2)C2CCCC=C12` (stereo not given), the 50% inhibitory concentration (IC50) was 4.81 µM and the fold change was 2.44.
Turning to `O=C(N/N=C/c1ccccc1Cl)c1nc2ccc([N+](=O)[O-])cc2c(=O)[nH]1`, the IC50 is > 54 µM (inactive) and the fold change is 0.977.
Take `COc1ccc(C2C(C(=O)c3cccs3)=C(O)C(=O)N2c2nncs2)cc1` (stereo not given): the IC50 is < 0.42 µM and the fold change came to 13.
For the molecule `C=CCn1c(=O)[nH]c2nc3cc(N=CN(C)C)c(C)cc3nc2c1=O`, the IC50 was < 0.42 µM and the fold change was found to be 40.
In the case of `O=[N+]([O-])c1ccc(-c2nc3ccc([N+](=O)[O-])cc3[nH]2)cc1`, the IC50 was > 54 µM (inactive) and the fold change turned out to be 1.04.
For `COc1cc(CN2CCN(c3cccc(C)c3C)CC2)cc(OC)c1O`, in that order: > 54 µM (inactive) and 1.03.
The like results for `O=S(=O)(Nc1nc2ccccc2nc1N1CCN(c2ccccn2)CC1)c1ccc(Cl)cc1` were, in that order, > 54 µM (inactive) and 2.14.
For `CCCCNC(=O)CN1C(=O)c2cccc(N)c2C1=O`, in that order: 2.71 µM and 2.44.
As to `Cn1c(SCC(=O)Nc2ccc3nc(SCC(=O)N4CCCC4)sc3c2)nnc1-c1ccccc1`, the IC50 was > 54 µM (inactive) and the fold change is 1.08.
As to `Nc1ccc(-c2nc3ccc(C(=O)O)cc3s2)cc1`, the IC50 was > 54 µM (inactive) and the fold change was found to be 1.
With `O=c1[nH]c2c(s1)C=Nc1ccccc1N2`, the IC50 was 0.81 µM and the fold change came out at 9.16.
Regarding `CCOC(=O)c1cc(-c2ccc(/C=C3/C(=O)NC(=O)C(C#N)=C3C)o2)ccc1Cl`, the IC50 is < 0.42 µM and the fold change was determined as 2.14.
For `Cc1nc2ccccc2n2c(O)c(CC(=O)O)cc12`, in that order: > 54 µM (inactive) and 7.32.
Regarding `C=CCc1cccc(C=Nc2cc(Br)ccc2O)c1O`, the half-inhibitory concentration (IC50) is 5.72 µM and the fold change was 27.4.
Take `Cc1oc2cc(O)ccc2c(=O)c1-c1nncn1-c1ccccc1`: the IC50 is 0.46 µM and the fold change came to 10.9.
As for `Cn1c(=O)cc2c3c(c(N4CCCCC4)ccc31)C(=O)c1ccccc1-2`, the IC50 was 4.67 µM and the fold change was 1.91.
The like results for `O=C(OCCN1C(=O)c2cccc3c(N4CCOCC4)ccc(c23)C1=O)c1ccccc1Cl` were, in that order, 2.87 µM and 65.4.
In the case of `Cc1cccc(N=Nc2c(O)[nH]c3ccc(F)cc23)c1`, the IC50 was 2.03 µM and the fold change worked out at 12.
Regarding `O=C1NC(=O)N(Cc2ccco2)C(=O)/C1=C/c1ccc(-c2cccc([N+](=O)[O-])c2)o1`, the IC50 is 16.5 µM and the fold change is 2.15.
